In the assay the target is T1, glycine binding site of the NMDA receptor channel (Rattus norvegicus, UniProt P35439).
T1 construct: from tissue; host or cells: rat brain cortex and hippocampus membrane homogenate (male Wistar rats)
Kind of assay: Receptor binding studies, displacement of (3H)-MDL 105,519 from brain membrane homogenates. To be noted: for Displacement (%, 10 μmol) / inhibition at 10 µM: percentage of bonded radioactive ligand (3H)-MDL 105,519 displaced from specific binding at 10 μM of test substance; for Ki: glycine binding site of the NMDA receptor channel, rat cortex/hippocampus membrane homogenate, 1 nmol/l (3H)-MDL 105,519, from IC50 by Cheng-Prussoff equation; for inhibition at 10 µM: read-out: Displacement (%, 10 μmol). How it is done: The tests to determine the affinity of the compounds of formula (I) according to the invention for the glycine binding site of the NMDA receptor channel were carried out on brain membrane homogenates (homogenate of cortex and hippocampus area from the brains of male rats, Wistar strain) (B. M. Baron, B. W. Siegel, B. L. Harrison, R. S. Gross, C. Hawes and P. Towers, Journal of Pharmacology and Experimental Therapeutics, (1996), Vol. 279, p. 62).
To that end, cortex and hippocampus from freshly removed rat brains were exposed and homogenized, while cooling with ice, in 5 mmol/l of TRIS acetate buffer, […] of saccharose pH 7.4 (10 ml/g fresh weight) using a Potter homogenizer (Braun/Melsungen; 10 piston strokes at 500 rpm) and then centrifuged for 10 minutes at 1000 g and 4° C. The first supernatant was collected and the sediment was again homogenized, while cooling with ice, with 5 mmol/l of TRIS acetate buffer, 0.32 mol/l of saccharose pH 7.4 (5 ml/g original fresh weight) using the Potter homogenizer (10 piston strokes at 500 rpm) and centrifuged for 10 minutes at 1000 g and 4° C. The resulting supernatant was combined with the supernatant from the first centrifugation and centrifuged for 20 minutes at 17,000 g and 4° C. The supernatant from this centrifugation was discarded and the membrane sediment was taken up in 5 mmol/l of TRIS acetate buffer pH 8.0 (20 ml/g original fresh weight) and homogenized with 10 piston strokes at 500 rpm.
The membrane homogenate was then incubated for one hour at 4° C. and centrifuged for 30 minutes at 50,000 g and 4° C. The supernatant was discarded and the centrifuge tube containing the membrane sediment was closed with Parafilm and frozen for 24 hours at −20° C. On the following day, the membrane sediment was thawed and taken up in 5 mmol/l of ice-cold TRIS acetate buffer, 0.1% saponin (w/v) pH 7.0 (10 ml/g original fresh weight) and homogenized with 10 piston strokes at 500 rpm and then centrifuged for 20 minutes at 50,000 g and 4° C. The resulting supernatant was discarded and the sediment was taken up in a small volume in 5 mmol/l of TRIS acetate buffer pH 7.0 (about 2 ml/g original fresh weight) and again homogenized with 10 piston strokes at 500 rpm. After determination of the protein content, the membrane homogenate was adjusted to a protein concentration of 10 mg of protein/ml with 5 mmol/l TRIS acetate buffer pH 7.0, and was frozen in aliquots until testing.
For the receptor binding test, aliquots were thawed, diluted 1:10 with 5 mmol/l of TRIS acetate buffer pH 7.0, homogenized, while cooling with ice, with 10 piston strokes at 500 rpm using the Potter homogenizer (10 piston strokes at 500 rpm) and centrifuged for 60 minutes at 55,000 g and 4° C. The supernatant was decanted off and the membrane sediment was adjusted to a protein concentration of 1 mg/ml with 50 mmol/l of ice-cold TRIS acetate buffer pH 7.0 and again homogenized with 10 piston strokes at 500 rpm and maintained in suspension in an ice-bath while stirring with a magnetic stirrer. Of that membrane homogenate, 100 μl per 1 ml batch were used in the receptor binding test (0.1 mg protein/ml in the final batch).
In the binding test, 50 mmol/l of TRIS acetate buffer pH 7.0 were used as the buffer, and 1 nmol/l of (^3H)-MDL 105,519 (B. M. Baron et al. 1996) was used as the radioactive ligand. The proportion of non-specific binding was determined in the presence of 1 mmol/l of glycine.
In further batches, the compounds according to the invention were added in series of concentrations and the displacement of the radioactive ligand from its specific binding to the glycine binding site of the NMDA receptor channel was determined. The respective triplicate batches were incubated for 120 minutes at 4° C. and then harvested by means of filtration through glass fiber filter mats (GF/B) for determination of the radioactive ligand bonded to the membrane homogenate. […]

Structures can show the parent of a compound that is named as a salt.

With `COc1ccc(NC(C(=O)O)c2cccs2)cc1` (centres unmarked) [(4-methoxy-phenylamino)-thien-2-yl-acetic acid, reference compound], the “binding to the glycine binding site of the NMDA ion channel (statement in words)” value (general statement in the description, no values) is “bind selectively to the glycine binding site of the NMDA ion channel”.

For `CSCc1ccc(C(Nc2cc(Cl)cc(Cl)c2)C(=O)O)o1` (centres unmarked) [Example 106, (3,5-Dichloro-phenylamino)-(5-methylsulfanylmethyl-furan-2-yl)-acetic acid], the “Displacement (%, 10 μmol)” value turned out to be 65%. The same measure, in the same setting: next, `CSCc1ccc(C(Nc2cc(Cl)cc(Cl)c2)C(=O)O)o1.Cl` (centres unmarked) [Example 106-HCl, (3,5-Dichloro-phenylamino)-(5-methylsulfanylmethyl-furan-2-yl)-acetic acid hydrochloride]: 91%. For orientation: Ki means the equilibrium dissociation constant of an inhibitor or competing ligand from its target. A high value points to lower affinity. `CSCc1ccc(C(Nc2cc(Cl)cc(Cl)c2)C(=O)O)o1.[Na]` (centres unmarked) [Example 106-Na, (3,5-Dichloro-phenylamino)-(5-methylsulfanylmethyl-furan-2-yl)-acetic acid sodium]: affinity was put at a Ki of 2980 nM and the “Displacement (%, 10 μmol)” value is listed as 78%. For the molecule `O=C(O)C(Nc1cc(Cl)cc(Cl)c1)c1ccc(CS)o1` (centres unmarked) [Example 107, (3,5-Dichloro-phenylamino)-(5-mercaptomethyl-furan-2-yl)-acetic acid], the inhibition at 10 µM amounted to 101%. On to `O=C(O)C(Nc1cc(Cl)cc(Cl)c1)c1ccc(CO)s1` (centres unmarked) [Example 109, (3,5-Dichloro-phenylamino)-(5-hydroxymethyl-thiophen-2-yl)-acetic acid], for which the inhibition at 10 µM is 66%. For the molecule `CC(=O)SCc1ccc(C(Nc2cc(Cl)cc(Cl)c2)C(=O)O)o1` (centres unmarked) [Example 110, (5-Acetylsulfanylmethyl-furan-2-yl)-(3,5-dichloro-phenylamino)-acetic acid], the inhibition constant Ki was determined as 120 nM and the inhibition at 10 µM came out at 104%. Consider `CCc1ccc(C(Nc2cc(Cl)cc(Cl)c2)C(=O)O)s1` (centres unmarked) [Example 111, (3,5-Dichloro-phenylamino)-(5-ethyl-thiophen-2-yl)-acetic acid], for which the inhibition at 10 µM came out at 44%.

On to `O=C(O)C(Nc1cccc(Cl)c1)c1ccc(CS)o1` (centres unmarked) [Example 113, (3-Chloro-phenylamino)-(5-mercaptomethyl-furan-2-yl)-acetic acid], for which the inhibition at 10 µM is 99%. On the same count and under the same terms, to `O=C(O)C(Nc1ccc(Cl)c(Cl)c1)c1ccc(CS)o1` (centres unmarked) [Example 114, (3,4-Dichloro-phenylamino)-(5-mercaptomethyl-furan-2-yl)-acetic acid] belongs 45%. On the same count and under the same terms, to `CC(C)(C)c1ccc(C(Nc2cc(Cl)cc(Cl)c2)C(=O)O)o1` (centres unmarked) [Example 119-HCl, (5-tert-Butylfuran-2-yl)-(3,5-dichlorophenylamino)-acetic acid hydrochloride] belongs 91%. In the case of `O=C(O)C(Nc1cc(Cl)cc(Cl)c1)c1ccc(CSSCc2ccco2)o1` (centres unmarked) [Example 120, (3,5-Dichlorophenylamino)-[5-(furan-2-ylmethyldisulfanylmethyl)-furan-2-yl]-acetic acid], the Ki came out at 470 nM and the inhibition at 10 µM is 103%.

With `CSSCc1ccc(C(Nc2cc(Cl)cc(Cl)c2)C(=O)O)o1` (centres unmarked) [Example 121, (3,5-Dichlorophenylamino)-(5-methyldisulfanylmethyl-furan-2-yl)-acetic acid], the Ki was 290 nM and the inhibition at 10 µM was 106%. The like results for `CC(=O)OCc1ccc(C(Nc2cc(Cl)cc(Cl)c2)C(=O)O)o1` (centres unmarked) [Example 123, (5-Acetoxymethylfuran-2-yl)-(3,5-dichlorophenylamino)-acetic acid] were, in that order, 5030 nM and 60%. The like results for `Cc1ccc(C(Nc2cc(Cl)cc(Cl)c2)C(=O)O)s1` (centres unmarked) [Example 125-Na, (3,5-Dichlorophenylamino)-(5-methylthiophen-2-yl)-acetic acid sodium salt] were, in that order, 5030 nM and 63%.

`Cc1csc(C(Nc2cc(Cl)cc(Cl)c2)C(=O)O)c1` (centres unmarked) [Example 126, (3,5-Dichlorophenylamino)-(4-methylthiophen-2-yl)-acetic acid]: the Ki was found to be 15400 nM and the inhibition at 10 µM is 52%. On the same counts, the results for `O=C(O)C(Nc1cc(Cl)cc(Cl)c1)c1ccc(Cl)s1` (centres unmarked) [Example 127, (5-Chlorothiophen-2-yl)-(3,5-dichlorophenylamino)-acetic acid] are 2570 nM and 68%.

Take `O=C([O-])C(Nc1cc(Cl)cc(Cl)c1)c1ccc(Cl)s1.[Na+]` (centres unmarked) [Example 127-Na, (3,5-Dichlorophenylamino)-(5-chlorothiophen-2-yl)-acetic acid sodium salt]: the “Displacement (%, 10 μmol)” value stood at 72%.
